Measurements published in patent US20220002280A1, “COMPOUNDS AND METHODS OF USE” (Ferro Therapeutics, Inc., priority 2019, published 2022).

Legend:
786-O [1] = assay: Cell proliferation (Alamar Blue) assay, 786-O; type: cell-based, human; details: 786-O cells, 24 h treatment
Experimental: (§1) A cell viability assay was performed to assess the potency of the compounds in human cancer cell lines 786-0 (renal cell carcinoma), SJSA-1 (osteosarcoma), and/or A431 (epidermoid carcinoma). Additional cell lines, such as pancreatic cancer cell lines (e.g., Panc 02.13, BxPC-3, Panc 12, Panc 02.03, Panc 6.03, PSN-1, HPAC, and Capan-1), prostate cancer cell lines (e.g., PC-3, DU145, 22Rv1, NCI-H660, BPH1, LNCaP, BM-1604, and MDA PCa 2b), etc., can be tested in a similar method.
(§2) Cells (SJSA-1, 786-0 and/or A431) were seeded (5000 cells/100 μL/well) in 96-well tissue culture plate and incubated at 37° C./5% CO2 for 16-24 hours. The cells were then treated with compounds (25 μL of 5×). The compound concentrations were 10-0.0005 μM prepared in 3-fold serial dilutions with final DMSO concentration of 1%. The plates were then incubated for 24h at 37° C./5% CO2 in a moist environment. Then Alamar Blue™ reagent (final concentration 1×-12.5 μL) was added to each well and incubated for 1.5 hours at 37° C./5% CO2. The plates were read on fluorescence reader at 540 nm excitation and 590 nm emission wavelengths. The IC50 values were subsequently determined using a sigmoidal dose-response curve (variable slope) in GraphPad Prism® 5 software.

SJSA-1 [2] = assay: Cell proliferation (Alamar Blue) assay, SJSA-1; type: cell-based, human; details: Homo sapiens, SJSA-1 cells, 24 h treatment
Experimental: as §1, §2

786-O [3] = assay: GPX4 inhibition assay: Ferrostatin rescue, 786-O; type: cell-based; details: Homo sapiens, 786-0, 786-O cells
Experimental: as §2
(§3) Studies have shown that lipophilic antioxidants, such as Ferrostatin, can rescue cells from GPX4 inhibition-induced ferroptosis. For instance, mesenchymal state GPX4-knockout cells can survive in the presence of Ferrostatin, however, when the supply of Ferrostatin is terminated, these cells undergo ferroptosis (see, e.g., Viswanathan et al., Nature 547:453-7, 2017). […] Accordingly, the ability of a molecule to induce ferroptotic cancer cell death, and that such ability is admonished by the addition of Ferrostatin, is clear indication that the molecule is an GPX4 inhibitor.

SJSA-1 [4] = assay: GPX4 inhibition assay: Ferrostatin rescue, SJSA-1; type: cell-based; details: Homo sapiens, SJSA-1 cells
Experimental: as §2, §3

A431 = assay: Cell proliferation (Alamar Blue) assay, A431; type: cell-based, human; details: Homo sapiens, A-431, A431 cells, 24 h treatment
Experimental: as §1, §2

A549 = assay: Counter-screen in A549 (CellTiter Glo); type: cell-based, human; details: Homo sapiens, A549 cells, 96 hours
Experimental: Selected compounds were also assayed (counter-screened) in a human lung cancer cell line, A549, a less sensitive cell line to GPX4 inhibitors, as a control to assess differential activity. Cells at a density of 800-2,000 cells/well were seeded in 96-well plates and incubated at 37° C. overnight. A series of nine different concentrations of compound stocks (500×) were created by 3-fold serial dilution in DMSO. These compounds were further diluted in culture media and then added to cells so that the final DMSO concentration was equal to 0.25% or less. After 96 hours of incubation, 50 μL of CellTiter Glo reagent (Promega) was added to each well and luminescence was measured after 10 minutes using EnVision (PerkinElmer). RSL3 (a prototype GPX4 inhibitor, also known as RSL-3) was used as a reference compound titrated from top concentration of up to 30 μM. All compounds were tested initially from 30 µM as the top concentration in duplicates (range of 4.6 nM-30 μM). […] Luminescence from cells treated with DMSO alone was set as Max and % of inhibition was calculated as follows: Inhibition %=(Max-Sample value)/Max*100. Data was analyzed using XL-fit software (ID Business Solutions Ltd.). IC50, relative IC50, or % of top inhibition was calculated.

KP4 = assay: Cell viability in KP4 (Table 4); type: cell-based; details: Homo sapiens, KP-4; KP4 cells
[5] = Mouse IV pharmacokinetics; type: in vivo, Balb/c mice; details: male, Balb/c, plasma; Mouse IV-PK (5 mg/kg)
Text: Institutional Animal Ethical Committee (IAEC) of Jubilant Biosys (IAEC/JDC/2019/188R (for Mice) and IAEC/JDC/2019/189R (for Rat) nominated by CPCSEA (Committee for the Purpose of Control and Supervision of Experiments on Animals) approved the mice and rat pharmacokinetic experiments. Male Balb/c mice (˜6-8 weeks old with body weight range of 22-25 g) and male SD rats (6-8 weeks old with body weight range of 200-250 g) were procured from Vivo Biotech, Hyderabad, India. Animals were quarantined in Jubilant Biosys Animal House for a period of 7 days with a 12:12 h light: dark cycles, and prior to the study the animals were stratified as per body weight.
A) Procedure for Mice: Intravenous, oral and intraperitoneal pharmacokinetics study was done at doses of 5, 20 and 10 mg/kg respectively at dose volume of 10 mL/Kg for PO and IP while 5 mL/kg for IV route. Sparse sampling was done and at each time point three mice were used for blood sampling (˜100 μL) were collected from retro-orbital plexus at 0.083 (Only for IV), 0.25, 0.5, 1, 2, 4, 8, 10 (only for PO) and 24 h. Blood samples collected in tubes containing K2.EDTA as anticoagulant and centrifuged for 5 min at 10,000 rpm in a refrigerated centrifuge (Biofuge, Heraeus, Germany) maintained at 4° C. for plasma separation.
Group I (IV) received test compound intravenously by tail vein at 5 mg/Kg in solution formulation prepared using 30% Kolliphore EL in WFI; dose volume: 5 mL/Kg; strength: 1 mg/mL.
Blood concentration-time data of test compound was analyzed by non-compartmental method using Phoenix WinNonlin Version 8.1.

[6] = 2 μM Ferrostatin, read-out: 786-O (IC50, μM) 2 μM Ferrostatin
[7] = without Ferrostatin, read-out: 786-O (IC50, μM) Without Ferrostatin
[8] = 2 μM Ferrostatin, read-out: SJSA-1 (IC50, μM) 2 μM Ferrostatin
[9] = without Ferrostatin, read-out: SJSA-1 (IC50, μM) Without Ferrostatin

Row | Compound | IC50 (786-O [1]; Homo sapiens, 786-0, 24 h) [µM] | IC50 (SJSA-1 [2]) [µM] | IC50 (A431) [µM] | IC50 (A549) [µM] | also measured
1 | COc1ccc2c(c1)C[C@H](C)N(C(=O)CCl)[C@H]2c1ccc(F)cc1 [Compound 8] | 0.181 | 0.183 | 7.9 | – | IC50 (786-O [3]; [6]): > 10 µM; IC50 (786-O [3]; [7]): 0.181 µM; IC50 (SJSA-1 [4]; [8]): > 10 µM; IC50 (SJSA-1 [4]; [9]): 0.183 µM
2 | COc1ccc2c(c1)C[C@H](C)N(C(=O)CCl)[C@H]2c1ccc(C(=O)NC2CC2)cc1 [Compound 5, 4-((1S,3S)-2-(2-chloroacetyl)-6-methoxy-3-methyl-1,2,3,4-tetrahydroisoquinolin-1-yl)-N-cyclopropylbenzamide] | – | – | – | – | IC50 (786-O [3]; [6]): > 10 µM; IC50 (SJSA-1 [4]; [8]): > 10 µM
3 | COC(=O)c1ccc([C@H]2c3sccc3C[C@H](C(=O)OC)N2C(=O)CCl)cc1 [Compound 42] | – | – | – | 5.05 | IC50 (KP4): 0.0618 µM
4 | COC(=O)c1ccc([C@@H]2c3sccc3C[C@H](C(=O)OC)N2C(=O)CCl)cc1 [Compound 43] | – | – | – | 10.3 | IC50 (KP4): 0.525 µM
5 | COc1cc2c(cc1OC)[C@H](c1ccc(N3CCOCC3)cc1)N(C(=O)CCl)[C@@H](C)C2 [Compound 44] | 0.592 | 0.599 | – | 6.58 | –
6 | COC(=O)c1ccc([C@@H]2c3ccc(OC)cc3C[C@H](C(=O)OC)N2C(=O)CCl)cc1 [Compound 41] | – | – | – | 1.31 | IC50 (KP4): 0.042 µM
7 | COc1ccc2c(c1)C[C@H](C)N(C(=O)CCl)[C@H]2c1ccc(N2CCOCC2)cc1 [Compound 47] | – | 0.329 | – | 6.58 | IC50 (786-O [1]): 0.259 µM
8 | C#CC(=O)N1[C@@H](c2ccc(C(=O)NC3CC3)cc2)c2ccc(OC)cc2C[C@@H]1C [Compound 4, N-cyclopropyl-4-((1S,3S)-6-methoxy-3-methyl-2-propioloyl-1,2,3,4-tetrahydroisoquinolin-1-yl)benzamide] | – | – | – | – | IC50 (786-O [3]; [6]): 5.73 µM; IC50 (SJSA-1 [4]; [8]): 3.56 µM
9 | COc1cc2c(cc1OC)[C@@H](c1ccc(N3CCOCC3)cc1)N(C(=O)CCl)[C@@H](C)C2 [Compound 45] | 5.89 | > 3 | – | 4.74 | –
10 | COc1ccc2c(c1)C[C@H](C)N(C(=O)CCl)[C@@H]2c1ccc(N2CCOCC2)cc1 [Compound 46] | – | 2.56 | – | 3.83 | –
11 | COC(=O)c1ccc([C@H]2c3ccccc3C[C@H](C(=O)OC)N2C(=O)CCl)cc1 [Compound 3, methyl (1S,3R)-2-(2-chloroacetyl)-1-(4-(methoxycarbonyl)phenyl)-1,2,3,4-tetrahydroisoquinoline-3-carboxylate] | 0.512 | 0.736 | > 10 | – | –

More lines, main results first:

Row | IC50 (786-O [1]; Homo sapiens, 786-0, 24 h) [µM] | IC50 (SJSA-1 [2]) [µM] | IC50 (A431) [µM] | Compound | IC50 (A549) [µM] | also measured
12 | 0.223 | 0.436 | 4.9 | C#CC(=O)N1[C@@H](c2ccc(F)cc2)c2ccc(OC)cc2C[C@@H]1C [Compound 9] | – | IC50 (786-O [3]; [6]): > 10 µM; IC50 (786-O [3]; [7]): 0.223 µM; IC50 (SJSA-1 [4]; [9]): 0.436 µM
13 | 0.743 | 0.659 | 5.8 | C#CC(=O)N1[C@@H](CCCC)Cc2cc(OC)ccc2[C@@H]1C1CCN(C)CC1 [Compound 54, 1-((3S)-3-butyl-6-methoxy-1-(1-methylpiperidin-4-yl)-3,4-dihydroisoquinolin-2(1H)-yl)prop-2-yn-1-one] | – | –
14 | 0.014 | 0.025 | 3.5 | C#CC(=O)N1[C@@H](CCCC)Cc2cc(OC)ccc2[C@@H]1c1ccc(F)cc1 [Compound 12, 1-((1S,3S)-3-butyl-1-(4-fluorophenyl)-6-methoxy-3,4-dihydroisoquinolin-2(1H)-yl)prop-2-yn-1-one] | – | AUC [5]: 181 ng·h/mL; Cmax [5]: 882 ng/mL; Vd [5]: 19.5 L/kg; clearance [5]: 454 mL/min/kg; half-life [5]: 30 min
15 | 0.004 | 0.008 | 8.9 | C#CC(=O)N1[C@@H](CCCC)Cc2cc(OC)ccc2[C@@H]1c1ccc(S(=O)(=O)NC2CCC2)cc1 [Compound 18, 4-((1S,3S)-3-butyl-6-methoxy-2-propioloyl-1,2,3,4-tetrahydroisoquinolin-1-yl)-N-cyclobutylbenzenesulfonamide] | – | –
16 | 0.016 | 0.018 | > 10 | CCCC[C@H]1Cc2cc(OC)ccc2[C@H](c2ccc(F)cc2)N1C(=O)CCl [Compound 11, 1-((1S,3S)-3-butyl-1-(4-fluorophenyl)-6-methoxy-3,4-dihydroisoquinolin-2(1H)-yl)-2-chloroethan-1-one] | – | –
17 | 0.024 | 0.053 | 8.92 | C#CC(=O)N1[C@@H](CCCC)Cc2cc(OC)ccc2[C@@H]1c1ccc(NC(=O)OCCCCC)cc1 [Compound 98, pentyl N-{4-[(1S,3S)-3-butyl-6-methoxy-2-(prop-2-ynoyl)-1,2,3,4-tetrahydroisoquinolin-1-yl]phenyl}carbamate] | – | –
18 | 0.053 | 0.05 | 5 | C#CC(=O)N1C(c2ccnc(C)c2)c2ccc(OC)cc2C[C@@H]1CCCC (stereo in doubt) [Compound 48, 1-((1S,3S)-3-butyl-6-methoxy-1-(2-methylpyridin-4-yl)-3,4-dihydroisoquinolin-2(1H)-yl)prop-2-yn-1-one] | – | –
19 | 0.005 | 0.01 | 10 | C#CC(=O)N1[C@@H](CCCC)Cc2cc(OC)ccc2[C@@H]1c1ccc(C(=O)NC23CC4CC(CC(C4)C2)C3)cc1 [Compound 38, N-((3R,5R,7R)-adamantan-1-yl)-4-((1S,3S)-3-butyl-6-methoxy-2-propioloyl-1,2,3,4-tetrahydroisoquinolin-1-yl)benzamide] | – | –
20 | 0.037 | 0.2 | > 10 | C#CC(=O)N1[C@@H](CCCC)Cc2cc(OC)ccc2[C@@H]1c1ccc(NC(=O)c2ccnc(C)c2)cc1 [Compound 95, N-{4-[(1S,3S)-3-butyl-6-methoxy-2-(prop-2-ynoyl)-1,2,3,4-tetrahydroisoquinolin-1-yl]phenyl}-2-methylpyridine-4-carboxamide] | – | –
